Laboratory results: article PMC6429159, “Evolution and Biological Evaluation of Matrinic Derivatives with Amantadine Fragments As New Anti-Influenza Virus Agents” (Molecules, 2019)
Where a name gives a salt, the structure may show the parent alone.

Experiments:
[1] = system: influenza virus A/hanfang/359/95 (H3N2); assay: organism not typed; format: cell-based; conditions: MDCK cells; for IC50: 50% virus-inhibitory concentration after 40 hr at 37 °C, – = no anti-H3N2 activity at the maximum non-toxic concentration; for anti-H3N2 activity (in words): CPE assay
[2] = system: MDCK cells; assay: Cytotoxicity assay; format: cell-based; conditions: 50% cytotoxic concentration, 48 hr
Method: A three-fold dilution compound was added to cell monolayer, and the cells continued to be cultivated for 48 hr, and then the CPE was recorded. The TC50 value of each compound was calculated by the methods of Reed & Muench.

For `O=C(OCCCC[C@@H]1[C@H]2CCCN3CCC[C@@H](CN1S(=O)(=O)c1ccc(C(F)(F)F)cc1)[C@@H]23)C12CC3CC(CC(C3)C1)C2` (as salt: hydrochloride) [Compound 9a, 12N-p-Trifluoromethlybenzenesulfonyl matrinic butyl adamantine-1’-carboxylate hydrochloride], which melting point is on record?
Its melting point is 231 °C (dec.).

Which melting point does the source give for `O=C(CC12CC3CC(CC(C3)C1)C2)OCCCC[C@@H]1[C@H]2CCCN3CCC[C@@H](CN1S(=O)(=O)c1ccc(C(F)(F)F)cc1)[C@@H]23` (as salt: hydrochloride) [Compound 9b, 12N-p-Trifluoromethlybenzenesulfonyl matrinic butyl-1’-adamantaneacetatehydrochloride] here?
The melting point was 227 °C (dec.).

With `O=C(OCCCC[C@@H]1[C@H]2CCCN3CCC[C@@H](CN1S(=O)(=O)c1ccc(C(F)(F)F)cc1)[C@@H]23)C12CC3CC(CC(Br)(C3)C1)C2` (as salt: hydrochloride) [Compound 9c, 12N-p-Trifluoromethlybenzenesulfonylmatrinicbutyl-3’-bromoadamantane-1’-carboxylate hydrochloride] as the compound, how does the melting point read?
The melting point was 222 to 223 °C.

Which melting point does the source give for `O=C(OCCCC[C@@H]1[C@H]2CCCN3CCC[C@@H](CN1S(=O)(=O)c1cccc(C(F)(F)F)c1)[C@@H]23)C12CC3CC(CC(C3)C1)C2` (as salt: hydrochloride) [Compound 9d, 12N-m-Trifluoromethlybenzenesulfonyl matrinic butyl adamantine-1’-carboxylate hydrochloride] here?
Its melting point is 190 to 191 °C.

For `O=C(CC12CC3CC(CC(C3)C1)C2)OCCCC[C@@H]1[C@H]2CCCN3CCC[C@@H](CN1S(=O)(=O)c1cccc(C(F)(F)F)c1)[C@@H]23` (as salt: hydrochloride) [Compound 9e, 12N-m-Trifluoromethlybenzenesulfonyl matrinic butyl-1’-adamantaneacetatehydrochloride], which melting point is on record?
The melting point was 155 to 156 °C.

Which melting point does the source give for `O=C(OCCCC[C@@H]1[C@H]2CCCN3CCC[C@@H](CN1S(=O)(=O)c1ccc(C(F)(F)F)cc1)[C@@H]23)C12CC3CC(CC1C3)C2` (as salt: hydrochloride) [Compound 9g, 12N-p-Trifluoromethlybenzenesulfonylmatrinicbutyl-3’-noradamantane-1’-carboxylate hydrochloride] here?
The melting point was 186 to 187 °C.

For `O=C(OCCCC[C@@H]1[C@H]2CCCN3CCC[C@@H](CN1S(=O)(=O)c1cccc(C(F)(F)F)c1)[C@@H]23)C12CC3CC(CC1C3)C2` (as salt: hydrochloride) [Compound 9h, 12N-m-Trifluoromethlybenzenesulfonylmatrinicbutyl-3’-noradamantane-1’-carboxylate hydrochloride], which melting point is on record?
Its melting point is 207 °C (dec.).

Which melting point does the source give for `O=C(CC1CC2CCC1C2)OCCCC[C@@H]1[C@H]2CCCN3CCC[C@@H](CN1S(=O)(=O)c1ccc(C(F)(F)F)cc1)[C@@H]23` (stereo partly shown) (as salt: hydrochloride) [Compound 9i, 12N-p-Trifluoromethlybenzenesulfonyl matrinic butyl-2’-norbornane acetate hydrochloride] here?
Its melting point is 223 °C (dec.).

Which melting point does the source give for `CC(C)(C)C(=O)OCCCC[C@@H]1[C@H]2CCCN3CCC[C@@H](CN1S(=O)(=O)c1ccc(C(F)(F)F)cc1)[C@@H]23` (as salt: hydrochloride) [Compound 9k, 12N-p-Trifluoromethlybenzenesulfonyl matrinic butyl pivalate hydrochloride] here?
The melting point was 219 to 221 °C.

With `CC(C)(C)C(=O)OCCCC[C@@H]1[C@H]2CCCN3CCC[C@@H](CN1S(=O)(=O)c1cccc(C(F)(F)F)c1)[C@@H]23` (as salt: hydrochloride) [Compound 9l, 12N-m-Trifluoromethlybenzenesulfonyl matrinicbutylpivalate hydrochloride] as the compound, how does the melting point read?
The melting point was 162 to 164 °C.

Which IC50 [1] does the source give for `CCCC[C@@H]1[C@H]2CCCN3CCC[C@@H](CN1S(=O)(=O)c1ccc(C(F)(F)F)cc1)[C@@H]23` [Compound 7a] here?
The IC50 was 21.3 ± 1.9 µM.

What about the TC50 [2] of the same compound?
Its TC50 is 79.8 ± 4.7 µM.

Which IC50 [1] does the source give for `CCCC[C@@H]1[C@H]2CCCN3CCC[C@@H](CN1S(=O)(=O)c1cccc(C(F)(F)F)c1)[C@@H]23` [Compound 7b] here?
The IC50 was 28.9 ± 2.4 µM.

And the TC50 [2]?
Its TC50 is 86.6 ± 2.3 µM.

Which results are given for `CCCC[C@@H]1[C@H]2CCCN3CCC[C@@H](CN1S(=O)(=O)c1ccccc1C(F)(F)F)[C@@H]23` [Compound 7c]?
IC50 [1]: 50 ± 1.1 µM; TC50 [2]: 86.6 ± 3.8 µM

With `O=C(OCCCC[C@@H]1[C@H]2CCCN3CCC[C@@H](CN1S(=O)(=O)c1ccc(C(F)(F)F)cc1)[C@@H]23)C12CC3CC(CC(C3)C1)C2` [Compound 9a, 12N-p-Trifluoromethlybenzenesulfonyl matrinic butyl adamantine-1’-carboxylate hydrochloride] as the compound, how does the IC50 [1] read?
The IC50 was 16.5 ± 2.9 µM.

And the TC50 [2]?
The TC50 was 19.5 ± 2.8 µM.

For `O=C(CC12CC3CC(CC(C3)C1)C2)OCCCC[C@@H]1[C@H]2CCCN3CCC[C@@H](CN1S(=O)(=O)c1ccc(C(F)(F)F)cc1)[C@@H]23` [Compound 9b, 12N-p-Trifluoromethlybenzenesulfonyl matrinic butyl-1’-adamantaneacetatehydrochloride], which IC50 [1] is on record?
The IC50 was 28.4 ± 2.3 µM.

And the TC50 [2]?
Its TC50 is 61.9 ± 1.9 µM.

For `O=C(CC12CC3CC(CC(C3)C1)C2)OCCCC[C@@H]1[C@H]2CCCN3CCC[C@@H](CN1S(=O)(=O)c1cccc(C(F)(F)F)c1)[C@@H]23` [Compound 9e, 12N-m-Trifluoromethlybenzenesulfonyl matrinic butyl-1’-adamantaneacetatehydrochloride], which IC50 [1] is on record?
Its IC50 is 11.1 ± 1.5 µM.

And the TC50 [2]?
The TC50 was 63.4 ± 2.3 µM.

What does the source list for `O=C(OCCCC[C@@H]1[C@H]2CCCN3CCC[C@@H](CN1S(=O)(=O)c1ccc(C(F)(F)F)cc1)[C@@H]23)C12CC3CC(CC1C3)C2` [Compound 9g, 12N-p-Trifluoromethlybenzenesulfonylmatrinicbutyl-3’-noradamantane-1’-carboxylate hydrochloride]?
anti-H3N2 activity (in words) [1]: complete loss in activity; TC50 [2]: 38.5 ± 6.6 µM

What does the source list for `O=C(OCCCC[C@@H]1[C@H]2CCCN3CCC[C@@H](CN1S(=O)(=O)c1cccc(C(F)(F)F)c1)[C@@H]23)C12CC3CC(CC1C3)C2` [Compound 9h, 12N-m-Trifluoromethlybenzenesulfonylmatrinicbutyl-3’-noradamantane-1’-carboxylate hydrochloride]?
anti-H3N2 activity (in words) [1]: complete loss in activity; TC50 [2]: 59.7 ± 0.0 µM

Which IC50 [1] does the source give for `O=C(CC1CC2CCC1C2)OCCCC[C@@H]1[C@H]2CCCN3CCC[C@@H](CN1S(=O)(=O)c1ccc(C(F)(F)F)cc1)[C@@H]23` (stereo partly shown) [Compound 9i, 12N-p-Trifluoromethlybenzenesulfonyl matrinic butyl-2’-norbornane acetate hydrochloride] here?
The IC50 was 25.7 ± 4.8 µM.

What about the TC50 [2] of the same compound?
Its TC50 is 129.0 ± 20.9 µM.

With `CC(C)(C)C(=O)OCCCC[C@@H]1[C@H]2CCCN3CCC[C@@H](CN1S(=O)(=O)c1ccc(C(F)(F)F)cc1)[C@@H]23` [Compound 9k, 12N-p-Trifluoromethlybenzenesulfonyl matrinic butyl pivalate hydrochloride] as the compound, how does the TC50 [2] read?
Its TC50 is 94.3 ± 11.3 µM.

Which IC50 [1] does the source give for `CC(C)(C)C(=O)OCCCC[C@@H]1[C@H]2CCCN3CCC[C@@H](CN1S(=O)(=O)c1cccc(C(F)(F)F)c1)[C@@H]23` [Compound 9l, 12N-m-Trifluoromethlybenzenesulfonyl matrinicbutylpivalate hydrochloride] here?
The IC50 was 18.2 ± 3.2 µM.

And the TC50 [2]?
The TC50 was 52.9 ± 8.0 µM.
